Data from patent US10646553B2, “Use of recombinant human calcineurin B subunit” (HAIKOU QILI PHARMACEUTICAL CO., LTD., priority 2015, dated 2020).

What was measured:
[1] = system: transplantation tumor of human gastric cancer cell MGC-803 carcinoma in situ; experiment: Bioluminescence detection (IVIS small animal live imaging) and necropsy of orthotopic MGC-803 tumour in nude mice; format: in vivo, BALB/c nude mice
Description: (§1) In one embodiment of the present invention, according to the “Technical Guidelines for Non-Clinical Studies of Cytotoxic Antitumor Drugs” and “Guidelines for Pharmacodynamics of Antitumor Drugs”, IVIS Kinetics (a small animal live imaging system) was used to dynamically analyze the therapeutic effect of rhCNB for injection on the BALB/c nude mice bearing the human gastric cancer cell MGC-803 carcinoma in situ. Firstly, a BALB/c nude mouse model bearing subcutaneous transplantation tumor of human gastric cancer cell MGC-803 was established, and then a BALB/c nude mouse model bearing transplantation tumor in situ of human gastric cancer cell MGC-803 was established. […] Each experimental group is administered once daily for 15 consecutive days, except that the positive control high-dose administration group of cisplatin for injection is administered for 5 days. […] Animals were examined once using Caliper IVIS Kinetics (small animal live imaging system) before the first administration (on the administration day), every other 3 days after the first administration and on the 7th day after the last administration, respectively, and body weight was measured before each examination. At the end of the last examination, animals were sacrificed and roughly necropsied, and organs inoculated with tumor (including tumor tissues) were removed for pathological examination and immunohistochemical assay of apoptosis.
Human gastric cancer cell MGC-803 was routinely cultured in vitro, digested, centrifuged, and then prepared into a cell suspension with a concentration of approximately 1×10^7 cells/mL. The cells were inoculated subcutaneously into the right armpit of mice at an amount of 0.2 mL/mouse.
Well-grown subcutaneously transplanted tumors were removed and cut into tumor tissue blocks with a size of approximately 2×2×1 mm for use. Animals to be inoculated were feed 12 hours before surgical operation and subjected to gas anesthesia with isoflurane. The anaesthetized animals were placed in supine position. The skin 2˜5 mm below the xiphoid process was cut horizontally layer-by-layer on the left side to give an opening of about 1 cm. Stomach was pull out gently using a pincette and exposed. The tumor tissue block was placed above the side near the pylorus of greater curvature of stomach of the nude mice with surgical suture #1 by “purse-string suture”, so that the tumor tissue block was wrapped therein. The skin was sutured layer by layer and disinfected by Entoiodine, and then the animals were returned back to the cage for normal feeding. 7 days after surgery, the animals were examined using the small animal live imaging system, grouped, and administrated.
The route for administration was by tail vein injection.
Animals were detected once using Caliper IVIS Kinetics small animal live imaging system at the following time point: before the first administration (on the administration day), every other 3 days after the first administration, and on the 7th day after the last administration, respectively. The body weight was measured before each detection. A substrate solution (with a concentration of 15 mg/mL) was injected intraperitoneally according to 0.1 mL/10 g body weight and a bioluminescence detection was performed 10˜15 min after injection.
The data obtained from the experiments were statistically analyzed using SPSS analysis software, and the significance of difference between the administration groups and the vehicle control group, and among each administration group was compared.

[2] = Survival of tumour-bearing animals during the experiment; format: in vivo, BALB/c nude mice
Description: as §1
The high-, medium-, low-dose groups and progressively increasing-dose group of the test sample were administered once daily for 15 consecutive days;

[3] = SD, low-dose 1 mg/kg once daily 15 d, d3
[4] = SD, low-dose 1 mg/kg once daily 15 d, d6
[5] = SD, low-dose 1 mg/kg once daily 15 d, d9
[6] = SD, low-dose 1 mg/kg once daily 15 d, d12
[7] = SD, low-dose 1 mg/kg once daily 15 d, d15
[8] = SG, high-dose 5 mg/kg once daily 5 d, d3
[9] = SG, high-dose 5 mg/kg once daily 5 d, d6
[10] = X, 2 mg/kg once daily 15 d, d12
[11] = X, 2 mg/kg once daily 15 d, d15

**Q.** With N.N.[Cl][Pt][Cl] [cisplatin for injection, cisplatin] as the molecule, how does the “Number of animals in which tumor is not detectable and not observed” value ([1]; SD, low-dose 1 mg/kg once daily 15 d, d0) read?
**A.** 0

**Q.** And the “Number of animals in which tumor is not detectable and not observed” value [1, 3]?
**A.** 0

**Q.** What about the “Number of animals in which tumor is not detectable and not observed” value [1, 4] of the same molecule?
**A.** 0

**Q.** And the “Number of animals in which tumor is not detectable and not observed” value [1, 5]?
**A.** 0

**Q.** And the “Number of animals in which tumor is not detectable and not observed” value [1, 6]?
**A.** 0

**Q.** What about the “Number of animals in which tumor is not detectable and not observed” value [1, 7] of the same molecule?
**A.** 0

**Q.** And the “Number of animals in which tumor is not detectable and not observed” value ([1]; SD, low-dose 1 mg/kg once daily 15 d, recovery period d7)?
**A.** 0

**Q.** What about the “Number of animals in which tumor is not detectable and not observed” value ([1]; SG, high-dose 5 mg/kg once daily 5 d, d0) of the same molecule?
**A.** 0

**Q.** What about the “Number of animals in which tumor is not detectable and not observed” value [1, 8] of the same molecule?
**A.** 0

**Q.** And the “Number of animals in which tumor is not detectable and not observed” value [1, 9]?
**A.** 0

**Q.** What about the “Number of animals in which tumor is not detectable and not observed” value ([1]; SG, high-dose 5 mg/kg once daily 5 d, d9) of the same molecule?
**A.** 0

**Q.** What about the “Number of animals in which tumor is not detectable and not observed” value ([1]; SG, high-dose 5 mg/kg once daily 5 d, d12) of the same molecule?
**A.** 0

**Q.** What about the “Number of animals in which tumor is not detectable and not observed” value ([1]; SG, high-dose 5 mg/kg once daily 5 d, d15) of the same molecule?
**A.** 0

**Q.** And the “Number of animals in which tumor is not detectable and not observed” value ([1]; SG, high-dose 5 mg/kg once daily 5 d, recovery period d7)?
**A.** 0

**Q.** What about the bioluminescence detection data ([1]; positive control high-dose group 5 mg/kg, after the 6th day administration) of the same molecule?
**A.** sharp increase

**Q.** What about the “number of surviving animals” value ([2]; SD, low-dose 1 mg/kg once daily 15 d, d0 before administration) of the same molecule?
**A.** (10)

**Q.** And the “number of surviving animals” value [2, 3]?
**A.** (10)

**Q.** What about the “number of surviving animals” value [2, 4] of the same molecule?
**A.** (10)

**Q.** And the “number of surviving animals” value [2, 5]?
**A.** (10)

**Q.** What about the “number of surviving animals” value [2, 6] of the same molecule?
**A.** (10)

**Q.** What about the “number of surviving animals” value [2, 7] of the same molecule?
**A.** (9)

**Q.** And the “number of surviving animals” value ([2]; SD, low-dose 1 mg/kg once daily 15 d, d21 (7th day after last administration))?
**A.** (4)

**Q.** And the “number of surviving animals” value ([2]; SG, high-dose 5 mg/kg once daily 5 d, d0 before administration)?
**A.** (10)

**Q.** And the “number of surviving animals” value [2, 8]?
**A.** (10)

**Q.** And the “number of surviving animals” value [2, 9]?
**A.** (10)

**Q.** And the “cause of death of the animals” value ([2]; during the experiment, preliminarily believed)?
**A.** mainly due to drug toxicity

**Q.** Which results are given for CC[C@@]1(O)C(=O)OCc2c1cc1n(c2=O)Cc2cc3cc(O)ccc3nc2-1 [hydroxycamptothecin for injection, hydroxycamptothecin]?
**A.** Number of animals in which tumor is not detectable and not observed ([1]; X, 2 mg/kg once daily 15 d, d0): 0; Number of animals in which tumor is not detectable and not observed ([1]; X, 2 mg/kg once daily 15 d, d3): 0; Number of animals in which tumor is not detectable and not observed ([1]; X, 2 mg/kg once daily 15 d, d6): 0; Number of animals in which tumor is not detectable and not observed ([1]; X, 2 mg/kg once daily 15 d, d9): 0; Number of animals in which tumor is not detectable and not observed [1, 10]: 0; Number of animals in which tumor is not detectable and not observed [1, 11]: 0; Number of animals in which tumor is not detectable and not observed ([1]; X, 2 mg/kg once daily 15 d, recovery period d7): 0; number of surviving animals ([2]; X, 2 mg/kg once daily 15 d, d0 before administration): (10); number of surviving animals ([2]; X, 2 mg/kg once daily 15 d, d3): (10); number of surviving animals ([2]; X, 2 mg/kg once daily 15 d, d6): (9); number of surviving animals ([2]; X, 2 mg/kg once daily 15 d, d9): (9); number of surviving animals [2, 10]: (9); number of surviving animals [2, 11]: (9); number of surviving animals ([2]; X, 2 mg/kg once daily 15 d, d21 (7th day after last administration)): (7)
